Measurements reported in US12083084B2, “Method for enhancing energy production and metabolism in cells” (REPLICON HEALTH OY, priority 2013, dated 2024).
Several values for one entry are separate records, joined by “and”; a condition that tells them apart may be missing. Equal values may be shown once.

Assays:
[1] = Plasma sample analyses on PYR, ALA, LAC and NO; type: in vivo, human
Method: As mentioned above also plasma samples were collected from S1 and S9, at 0 h and 1 h both in 12 h and 4.5 day test, i.e. 16 observations were gathered with either DGAcs or zero control situations. Additionally in statin group (S10 and S11) 2×2 measurements were done. Altogether there were 20 observations and, thus 10 differences between control and DGAcs administration can be calculated. Pyruvate concentrations were measured using Pyruvate Assay Kit from Sigma (MAK071 Sigma). Alanine concentrations were measured using Sigma Alanine Assay Kit (MAK001). Lactate concentrations were measured using Sigma Lactate Assay Kit (MAK064). And finally nitric oxide (NO) concentrations were measured using OxiSelect™ In Vitro Nitric Oxide (Nitrite/Nitrate) Assay Kit from Nordic Biosite Oy.

[2] = First set of clinical in vivo experiments, fasting blood test (Example 2.1); set-up: species or system human; details: for Headache after stopping twice a day administration: subjects S1-S3 (N = 3), 20-48 hours after last administration
Method: In the first set of experiments presented in Example 2.1 all the blood measurements were conducted next day after last administration of DGAcs. In the longer experiments doses (3-5 mg/kg) were typically taken once a day (preferably in the evening before going to bed). In shorter 1-4 day experiments doses were taken twice a day, in the morning and before going to bed. In all experiments in Example 2.2 the last DGAcs dose was double in size (some 8 mg/kg), and it was taken in the same morning as the collection of blood samples. Relatively high dose and short time to measurement was chosen in order to see clearer dose response in gene expression from peripheral leukocytes, and also from collected plasma samples.
Eight (8) persons completed controlled clinical testing with standard 10-12 hour fasting diet (f) blood test (sample analytics by United Medix Laboratories, Finland). There were four different types of clinical tests: first a 3 week test with low dose of DGA (N=3), secondly one 11 day test with bigger dose (N=1), and finally a 4 day test with high dose (N=4) and with low dose of DGA (N=2). Subjects 1 and 4 (in table 3) did the first three week test and then some months later also the separate 4 day test.
Daily doses varied from 3-4 mg/kg/day in 3 week test to 6 mg/kg twice a day in 4 day test. General rule in the studies was that the shorter the period the higher the dose. In three week clinical tests fasting blood standard lipid panel and other basic readings were measured at the beginning and at the end of the test period.
In the 4 day tests very wide fasting blood panel consisting of 25 different metrics was measured (see table 3 below), and additionally for some participants full blood count to measure more precise effect on erythrocytes and hemoglobin was carried out.
Unlike in hepatocytes study (Example 1) clinical experiments were conducted in a fasting diet situation. Challenges for obtaining meaningful health indications from DGAcs administration arises from the fact that the study persons (aged 41-73) were all healthy volunteers, i.e. the blood values were mostly at very good levels, and thus improvements from the control are hard to achieve. Nevertheless the results from clinical testing show clear signs on the efficacy of DGA in improving systemic redox state of especially the cardiovascular system and also clear indications of increased overall metabolic flux. Specific markers for functioning of liver, kidneys, pancreas and spleen show improvement in general (see Table 4).

[3] = average of measurements 1-10, vs zero control
[4] = healthy volunteer group only, S1 and S9
[5] = 4 day, 5-6 mg/kg twice a day, healthy lean subjects S1-S4, fasting blood, change from zero control
[6] = 4 day, 5-6 mg/kg twice a day, healthy lean subjects S1-S4, fasting blood, change from zero control, listed as DGA calcium salt
[7] = S4 (healthy person), after 4 day test, fasting blood

With `O.O.O=C([O-])[C@H](O)CO.O=C([O-])[C@H](O)CO.[Ca+2]` [DGAcs, D-glyceric acid, calcium salt dehydrate] the “increase of plasma pyruvate” value ([1]; S1 and S9, 1 hour after administering 75 000 mg of glucose) was ~20%, the “decline in NO” value ([1]; all measurements, vs control) was “approximately 10%” and the “Average Change of the Concentration, plasma Alanine” value [1, 3] was 3.5%. The “Average Change of the Concentration, plasma Nitric Oxide” value [1, 3] was −9.9%, the “Average Change of the Concentration, plasma Pyruvate” value [1, 3] was 25.9% and the “Average Change of the Concentration, plasma Lactate” value ([1]; average of measurements, vs zero control) was −31.9%. For the same compound, the “Average Change of the Concentration, plasma Nitric Oxide (BMI < 25)” value ([1]; average, subjects with BMI < 25, vs zero control) was −13.4%, the “decrease of plasma lactate” value [1, 4] was ~38% and the “increase of plasma pyruvate” value [1, 4] was “approximately 25%”. For the same compound, the “decrease of plasma/blood lactate” value ([1]; summary statement, humans, compared to control, Example 2.3.3) was 31.9% and 30%, the “Headache after stopping twice a day administration” value ([2]; 4 day test) was “slight headache” and the “HDL, 4 day change” value [2, 5] was −5%. For the same compound, the “LDL, 4 day change” value [2, 5] was 2%, the “S-Afos, 4 day change” value [2, 5] was −2% and the “S-Alb, 4 day change” value [2, 5] was −2%. For the same compound, the “S-Amyl, 4 day change” value [2, 5] was 65%, the “S-Bil, 4 day change” value [2, 5] was −12.6% and −19% and the “S-Bil-Kj, 4 day change” value [2, 5] was −17%. For the same compound, the “S-CK, 4 day change” value [2, 5] was −22%, the “S-Cal, 4 day change” value [2, 5] was −2% and the “S-GT, 4 day change” value [2, 5] was 11%. For the same compound, the “S-K, 4 day change” value [2, 5] was −2%, the “S-LD (LDH), 4 day change” value [2, 5] was −4% and the “S-Mg, 4 day change” value [2, 5] was −2%. The “S-Na, 4 day change” value [2, 5] was −1%, the “S-Uraat, 4 day change” value [2, 5] was −9.9% and −5% and the “fS-Gluk, 4 day change” value [2, 5] was 2%. The “fS-Kol, 4 day change” value [2, 5] was −2%, the “fS-Krea, 4 day change” value [2, 5] was −4% and the “fS-Pi, 4 day change” value [2, 5] was 18%. The “fS-Transf, 4 day change” value [2, 5] was 10%, the “fS-Transferr.satur., 4 day change” value [2, 5] was −32% and the “fS-Urea, 4 day change” value [2, 5] was −7%. For the same compound, the “HDL, 4 day change” value [2, 6] was −4.5% and −3.3% and −9.1% and −5.9%, the “S-Afos, 4 day change” value [2, 6] was −2.1% and 0.0% and −5.8% and −6.3% and the “S-Alb, 4 day change” value [2, 6] was −2.2% and 0.0%. For the same compound, the “S-Cal, 4 day change” value [2, 6] was −1.7% and 0.0% and −2.2% and −2.5%, the “S-LD (LDH), 4 day change” value [2, 6] was −3.7% and −4.2% and −4.8% and the “S-Mg, 4 day change” value [2, 6] was −2.4% and 6.3% and −3.6% and 2.2%. The “S-Na, 4 day change” value [2, 6] was −1.4% and −2.1% and 0.7%, the “S-Uraat, 4 day change” value [2, 6] was −5.2% and −3.2% and −12.0% and −9.9% and the “fS-Kol, 4 day change” value [2, 6] was −1.6% and −5.7% and −6.4% and −3.2%. The “fS-Krea, 4 day change” value [2, 6] was −4.4% and −11.1% and −5.0% and −8.5%, the “AST/ALT (ratio) after treatment” value ([2]; S1, earlier 4 day test (zero control 1.36)) was 1.05 and the AST/ALT [2, 7] was 1.10. The S-Bil [2, 7] was 9.7, the S-Uraat [2, 7] was 246 and the fS-Fe [2, 7] was 20.2. The fS-Trigly [2, 7] was 1.73 and the “average decline in blood urea” value ([2]; after 4 and 4.5 day administrations) was “approximately 9%”.
For `O=C(O)[C@H](O)CO` [DGA, D-glyceric acid], the “decline in NO” value ([1]; healthy individuals) was 13%, the “increase of plasma/blood pyruvate levels” value ([1]; summary statement, humans, Example 2.3.3) was 20-25% and 25% and the “fS-Trigly, increases in blood triglycerides” value ([2]; 5 subjects) was “Observed 25-50% increases in blood triglycerides”. The “Headache after stopping twice a day administration” value ([2]; 4 day test) was “some symptoms of headache after 20-48”, the “fS-Lactate dehydrogenase (LDH), average decline” value ([2]; healthy volunteers (N = 3), 4 day test) was “some 4%. (Subject 3” and the “fS-Na (Sodium), average decline” value ([2]; healthy volunteers (N = 4), 4 day test) was ~1.5%. For the same compound, the “fS-Urate (uric acid), average decline” value ([2]; healthy volunteers (N = 6), 4 day test) was “test; average decline some 6%”, the “fS-Cholesterol, average decline” value ([2]; healthy volunteers (N = 8)) was “(only some 3-5%)” and the “fS-Chol.-HDL, average decline” value ([2]; healthy volunteers (N = 8), all periods and doses) was ~6%. For the same compound, the Diuretic effects ([2]; non-acute dose) was “Sodium decline in most”, the “fS-Urea, average decline” value ([2]; non-acute dose) was “some 7-8%” and the “CK, creatinine kinase, average reduction in values” ([2]; non-acute dose, N = 4) was “On average 25% reduction in values (N = 4)”. For the same compound, the “Bilirubin conj., average reduction in values” ([2]; non-acute dose, N = 6) was “On average 20% reduction in values. N = 6”, the “Bilirubin, average reduction in values” ([2]; non-acute dose, N = 6) was “On average some 20% reduction in values” and the “fS-Asat, average reduction in values” ([2]; non-acute dose, N = 6) was “On average 15-20% reduction”. The “fS-Fe, average reduction in values” ([2]; non-acute dose, N = 6) was “On average 15% reduction in values. N = 6” and the fS-Alat ([2]; non-acute dose, N = 8, when values were higher in the recommended range) was “improvement was observed, when values”.
